Experiments:
D(2) dopamine receptor = D(2) dopamine receptor (Homo sapiens, UniProt P14416); test: Tested for the binding constant against cloned human Dopamine receptor D2L in HEK cells by displacing [3H]spiperone; format: cell-based, HEK293
D(3) dopamine receptor = D(3) dopamine receptor (Homo sapiens, UniProt P35462); test: Tested for the binding constant against cloned human Dopamine receptor D3 in HEK cells by displacing [3H]spiperone; format: cell-based, HEK293
D(3) dopamine receptor, sequence (P35462 whole entry): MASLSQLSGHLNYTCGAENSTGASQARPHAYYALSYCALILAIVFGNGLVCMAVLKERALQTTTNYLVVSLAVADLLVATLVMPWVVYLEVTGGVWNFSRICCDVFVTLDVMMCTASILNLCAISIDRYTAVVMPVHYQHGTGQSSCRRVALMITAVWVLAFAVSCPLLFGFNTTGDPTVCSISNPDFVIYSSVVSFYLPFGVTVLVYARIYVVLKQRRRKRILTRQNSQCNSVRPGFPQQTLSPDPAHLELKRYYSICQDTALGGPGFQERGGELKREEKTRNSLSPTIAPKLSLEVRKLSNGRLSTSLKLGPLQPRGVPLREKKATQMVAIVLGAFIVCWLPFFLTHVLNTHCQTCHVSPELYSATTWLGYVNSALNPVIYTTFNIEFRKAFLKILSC

D(2) dopamine receptor, sequence (P14416 whole entry): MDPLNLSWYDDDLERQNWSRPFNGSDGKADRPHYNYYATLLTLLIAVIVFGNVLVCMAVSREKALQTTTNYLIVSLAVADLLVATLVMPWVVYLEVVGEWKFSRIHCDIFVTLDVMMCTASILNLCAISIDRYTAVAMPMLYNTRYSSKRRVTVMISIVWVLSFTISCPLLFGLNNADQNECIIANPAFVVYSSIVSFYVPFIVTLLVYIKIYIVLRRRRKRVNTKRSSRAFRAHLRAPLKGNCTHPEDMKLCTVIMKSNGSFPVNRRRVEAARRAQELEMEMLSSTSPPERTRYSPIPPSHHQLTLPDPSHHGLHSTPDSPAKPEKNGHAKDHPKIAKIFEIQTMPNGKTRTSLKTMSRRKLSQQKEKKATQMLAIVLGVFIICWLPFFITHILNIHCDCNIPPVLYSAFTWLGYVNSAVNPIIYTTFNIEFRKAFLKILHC

Row | Ki (D(2) dopamine receptor) | Ki (D(3) dopamine receptor) | SMILES
1 | 782 nM | 756 nM | O=C(NCCCCN(CCCN1CCN(c2ccccc2)CC1)C1CCc2ccc(O)cc2C1)c1ccccc1 (stereo not drawn)
2 | 27.4 nM | 1.13 nM | CCCN(CCN1CCN(c2cccc(Cl)c2Cl)CC1)C1CCc2ccc(O)cc2C1 (stereo not drawn)
3 | 622 nM | 50.2 nM | N#CCCCN(CCCN1CCN(c2ccccc2)CC1)C1CCc2ccc(O)cc2C1 (stereo not drawn)
4 | 354 nM | 55.7 nM | O=C(NCCN(CCCN1CCN(c2ccccc2)CC1)C1CCc2ccc(O)cc2C1)c1ccccc1 (stereo not drawn)

Reference: ChEMBL document CHEMBL1135449, “A novel series of hybrid compounds derived by combining 2-aminotetralin and piperazine fragments: binding activity at D2 and D3 receptors” (Bioorg Med Chem Lett, 2002)
